“And” between values parts separate entries of the source, which are not always exact repeats. Equal values may be shown once.
System: rabbit MII oocytes
Assay: In vitro development after parthenogenic activation of rabbit oocytes (electrical activation, then incubation in M199 with drug)
Assay type: cell-based
Experimental: Metaphase II (MII) oocytes are collected from superovulated “New Zealand” rabbits by injections of FSH hormones followed by an injection of HCG hormone, mated with a vasectomized male 16 hours after injection of human choriogonadotrophin (hCG). The oocytes are then incubated in 0.5% hyaluronidase for 15 min (Sigma) in order to remove the cumulus cells by gentle pipeting. For the nuclear transfer, the oocytes are enucleated as previously described (Adenot et al., 1997). Simultaneously, cumulus cells are collected either from rabbits of “New Zealand” breed or from F1 rabbits obtained by a cross between rabbits of “New Zealand” breed crossed with rabbits of “Fauves de Bourgogne” breed or “New Zealand” transgenic F1 female rabbits containing a DNA construct with a sequence encoding the enhanced green fluorescence protein (eGFP) placed under the control of an EF1 (“elongation factor 1”) promoter or of an HMG promoter. The eGFP fluorescence and the PCR amplification reactions are used as markers for the cumulus donor cells. The cumulus cells are then stored at 38° C. in PBS without calcium or magnesium supplemented with 1% PVP 40 000 (polyvinylpyrrolidone (PVP)) which are then used as nucleus donor cells.
To reconstruct the embryos by nuclear transfer (NT), individual cumulus cells are inserted by micromanipulation into the zona pellucida of the enucleated oocytes. The embryos obtained by nuclear transfer (NT embryos) and the MII oocytes are activated in the following manner: 2 phases of electrical stimulations are applied 1 hour apart with a Grass stimulator (3 pulses of continuous current of 3.2 kV×cm^−1 for 20 μs each in 0.3 M mannitol containing 0.1 mM of Ca^2+ and of Mg^2+), the first phase inducing the fusion of the oocyte and of the cumulus cell. The reconstituted embryos are maintained for one hour in a culture medium at 38° C. […] After extensive washing to remove the drugs, the cells are again placed in culture in a microdrop of 50 μl of B2 medium supplemented with 2.5% fetal calf serum (FCS) in mineral oil (Sigma M8410) at 38° C. under an atmosphere saturated with 5% CO2. This activation protocol is applied to the NT embryos about 18 to 20 hours after mating of the donors.
The microtubular organization and the chromatin in the NT embryos at the 1 cell stage are observed as previously described (Adenot et al., 1997), except that the fixing state lasts for 20 min at 37° C. and that the mounting medium is Vectashield (Vector Laboratories). The rates of cleavage of the NT embryos and of the parthenotes are evaluated from 21 hours to 23 hours after electrostimulation. The rates of development up to the blastocyst stage are estimated after an in vitro culture of 3 to 4 days. For the evaluation of the number of cells, the embryos are fixed as previously described, and then stained with Hoechst […] at 1 μg/ml and then mounted on slides with wells in Vectashield and analyzed by epifluorescence. The controls are blastocysts which either developed in vitro from a 1 cell embryo collected from a superovulated rabbit or which developed in vivo from nonsuperovulated females crossed with a male and then sacrificed 3 or 4 days later.

[1] = 30 min incubation in M199 + drug after electrical activation
[2] = 1 h incubation in M199 + drug after electrical activation
[3] = 1 h incubation in M199 + drug after electrical activation, cleavage at 2 cell stage
[4] = 4 h incubation in M199 + drug after electrical activation

SMILES | Number of blastocysts [1] | Number of cleaved oocytes [1] | blastocysts (%) [1] | cleaved oocytes (%) [1] | Number of blastocysts [2] | Number of cleaved oocytes [2] | blastocysts (%) [2] | cleaved oocytes (%) [3] | Number of blastocysts [4] | Number of cleaved oocytes [4] | blastocysts (%) [4] | cleaved oocytes (%) [4]
CN(C)c1ncnc2nc[nH]c12 [6-DMAP, 6-dimethylaminopurine] | 32 | 43 | 66.7% | 89.6% | 38 and 35 | 46 and 47 | 72.9% | 96% and 95.8% and 97.9% | – | – | – | –
C[C@@H]1C[C@@H]([C@H](O)CC2CC(=O)NC(=O)C2)C(=O)[C@@H](C)C1 [CHX, cycloheximide] | 19 | 41 | 39.6% | 85.4% | 24 | 45 | 50% | 94% and 93.7% | 25 | 47 | 52.1% | 97.9%

Source: patent publication US20050155093A1, “Rabbit nuclear cloning method and uses thereof” (Institute National de Ia Recherche Agronomique, priority 2002, published 2005)
